How the values were obtained:
[1] = xn = mol fraction of the nth substance listed; settings: 100 kPa, Liquid; for viscosity: Falling or rolling sphere viscometry; for mass density: Vibrating tube method

Cc1ccccc1 [toluene] + CCO
[1]
Settings | mass density [kg/m3] | viscosity [mPa·s]
298.15 K, x2 = 0.1003 | 857.16 | –
298.15 K, x2 = 0.1005 | – | 0.549
298.15 K, x2 = 0.2002 | 852.38 | –
298.15 K, x2 = 0.2013 | – | 0.558
298.15 K, x2 = 0.3 | 847.27 | –
298.15 K, x2 = 0.3002 | – | 0.577
298.15 K, x2 = 0.4 | 841.65 | –
298.15 K, x2 = 0.4003 | – | 0.606
298.15 K, x2 = 0.5001 | – | 0.644
298.15 K, x2 = 0.5002 | 835.35 | –
298.15 K, x2 = 0.6001 | 828.22 | 0.693
298.15 K, x2 = 0.7 | 819.95 | 0.754
298.15 K, x2 = 0.8 | 810.35 | 0.831
298.15 K, x2 = 0.9 | 798.87 | 0.926
318.15 K, x2 = 0.1004 | 838.1 | 0.439
318.15 K, x2 = 0.2002 | 833.2 | –
318.15 K, x2 = 0.2004 | – | 0.442
318.15 K, x2 = 0.2997 | – | 0.449
318.15 K, x2 = 0.3003 | 828.01 | –
318.15 K, x2 = 0.4003 | 822.39 | –
318.15 K, x2 = 0.4007 | – | 0.464
318.15 K, x2 = 0.5 | 816.2 | –
318.15 K, x2 = 0.5007 | – | 0.483
318.15 K, x2 = 0.5998 | – | 0.508
318.15 K, x2 = 0.6001 | 809.19 | –
318.15 K, x2 = 0.6998 | – | 0.542
318.15 K, x2 = 0.7001 | 801.21 | –
318.15 K, x2 = 0.7996 | 791.97 | –
318.15 K, x2 = 0.7999 | – | 0.585
318.15 K, x2 = 0.8998 | – | 0.641
318.15 K, x2 = 0.9 | 780.91 | –

CCO [ethanol]
100 kPa, Liquid
Settings | mass density, 298.15 K [kg/m3] | mass density, 318.15 K [kg/m3] | viscosity, 298.15 K [mPa·s] | viscosity, 318.15 K [mPa·s]
Falling or rolling sphere viscometry | – | – | 1.084 | 0.752
Vibrating tube method | 785.01 | 767.54 | – | –

Cc1ccccc1 [toluene]
100 kPa, Liquid
Settings | mass density, 298.15 K [kg/m3] | mass density, 318.15 K [kg/m3] | viscosity, 298.15 K [mPa·s] | viscosity, 318.15 K [mPa·s]
Falling or rolling sphere viscometry | – | – | 0.533 | 0.447
Vibrating tube method | 862.01 | 843.51 | – | –

CC(C)(C)O [2-methylpropan-2-ol] + CCO
[1]
Settings | mass density, 298.15 K [kg/m3] | mass density, 318.15 K [kg/m3] | viscosity, 298.15 K [mPa·s] | viscosity, 318.15 K [mPa·s]
x2 = 0.045 | 781.92 | 761.37 | 4.314 | 1.724
x2 = 0.082 | 782.51 | 762.26 | 4.195 | 1.721
x2 = 0.1516 | – | 763.35 | – | 1.692
x2 = 0.1518 | 783.11 | – | 3.939 | –
x2 = 0.287 | 783.69 | – | 3.395 | –
x2 = 0.2872 | – | 764.69 | – | 1.577
x2 = 0.4083 | – | 765.58 | – | 1.442
x2 = 0.4085 | 783.95 | – | 2.86 | –
x2 = 0.5174 | 784.15 | 766.2 | 2.384 | 1.308
x2 = 0.6167 | 784.31 | – | 2.026 | –
x2 = 0.6168 | – | 766.59 | – | 1.188
x2 = 0.707 | 784.42 | – | 1.749 | –
x2 = 0.7072 | – | 766.91 | – | 1.078
x2 = 0.7896 | 784.55 | 767.15 | 1.532 | 0.983
x2 = 0.8654 | 784.72 | – | 1.349 | –
x2 = 0.8656 | – | 767.35 | – | 0.895
x2 = 0.9355 | 784.85 | 767.46 | 1.205 | 0.817

CC(C)(C)O [2-methylpropan-2-ol]
100 kPa
Settings | mass density [kg/m3] | viscosity [mPa·s]
298.15 K, Metastable liquid, Falling or rolling sphere viscometry | – | 4.426
298.15 K, Metastable liquid, Vibrating tube method | 780.99 | –
318.15 K, Falling or rolling sphere viscometry, Liquid | – | 1.706
318.15 K, Vibrating tube method, Liquid | 759.66 | –

CC(C)(C)O [2-methylpropan-2-ol] + Cc1ccccc1
[1]
Settings | mass density, 298.15 K [kg/m3] | mass density, 318.15 K [kg/m3] | viscosity, 298.15 K [mPa·s] | viscosity, 318.15 K [mPa·s]
x2 = 0.0822 | 786.59 | 765.3 | 2.579 | 1.171
x2 = 0.1676 | – | 771.88 | – | 0.899
x2 = 0.1678 | 792.96 | – | 1.625 | –
x2 = 0.2564 | 799.78 | – | 1.184 | –
x2 = 0.2565 | – | 778.96 | – | 0.744
x2 = 0.3488 | 807.09 | – | 0.991 | –
x2 = 0.3491 | – | 786.64 | – | 0.649
x2 = 0.4458 | 815 | – | 0.868 | –
x2 = 0.4459 | – | 794.84 | – | 0.582
x2 = 0.5467 | – | 803.43 | – | 0.528
x2 = 0.5468 | 823.34 | – | 0.744 | –
x2 = 0.6524 | – | 812.43 | – | 0.486
x2 = 0.6525 | 832.08 | – | 0.624 | –
x2 = 0.7621 | 841.26 | – | 0.562 | –
x2 = 0.7627 | – | 821.89 | – | 0.461
x2 = 0.8787 | 851.02 | – | 0.561 | –
x2 = 0.8788 | – | 832.02 | – | 0.454
